logP	Structure (SMILES)
1.97	Oc1cc(O)c2ccccc2c1
3.03	CCC(C)NC(=O)C(=Cc1ccccc1)SC (stereo unspecified)
0.5	NS(=O)(=O)c1ccc(C(=O)O)cc1
1.93	CC(=O)Oc1ccccc1C
0.13	Cc1ncc([N+](=O)[O-])n1CCS(=O)(=O)C(C)C
2.04	O=C(O)COc1ccccc1Br
2.93	Oc1cccc(I)c1
2.59	O=[N+]([O-])c1ccc2cccccc1-2
1.1	CCc1ccc(N2C(=O)CCC2=O)cc1
2.34	CCOC(=O)C(=Cc1cccc(OC)c1)C(C)=O
2.16	CCNc1ccccc1
-0.65	NC(=O)Cc1ccccn1
1.04	Nc1cnnc2ccccc12
2.57	CCn1c(=O)c2nc(-c3ccc(S(=O)(=O)NCCN(C)C)cc3)[nH]c2n(CC)c1=O
1.41	COC(=O)COc1ccccc1
3.52	CCC(C)NC(=O)C=C(Cl)c1ccccc1 (stereo unspecified)
-0.41	NC(=O)c1ccc(N)cc1
2.22	CC(C)C(=O)CC(=O)C(C)C

logP	Structure (SMILES)
0.54	O=C(c1ccco1)C(O)c1ccco1 (stereo unspecified)
-0.49	COCC(O)Cn1cnc([N+](=O)[O-])n1 (stereo unspecified)
1.15	COC(=S)NCCn1c([N+](=O)[O-])cnc1C
-0.51	COc1ccc(S(I)=C(N(C)C)N(C)C)cc1 (stereo unspecified)
4.4	CCC(C)N(C(=O)SCc1ccccc1)C(C)CC (stereo unspecified)
0.63	CCCc1cc(C(=O)NN)ccn1
1.56	CC(=O)c1cccc(C(=O)O)c1
1.05	N#CN/C(N)=N/c1ccccc1
2.17	O=C(NC(CO)C(O)c1ccc([N+](=O)[O-])cc1)C(Br)(Br)Br (stereo unspecified)
2.5	CN(C)CCN1C(=O)c2ccccc2N(C)c2ccccc21
-1.25	CC(=O)Nc1cc(C(=O)NN)ccn1
0.77	CCC(=O)c1ccncc1
2.46	CCCCCCNC(=O)c1[nH]nc(C)c1[N+](=O)[O-]
3.35	Oc1ccc(Oc2ccccc2)cc1
1.85	O=C(O)COc1ccc(Cl)c([N+](=O)[O-])c1
1.57	CSc1cccc(NC(N)=O)c1
3.84	OC1(c2ccc(Cl)cc2)CCN(CCCC2(c3ccc(F)cc3)OCCO2)CC1

Continued, compound first:

Structure (SMILES)	logP
CCOC(=O)n1cnc(CC(NC(=O)C2CCC(=O)N2)C(=O)N2CCCC2C(N)=O)c1 (stereo unspecified)	-1.3
CCCCCOC1OC(CO)C(O)C(O)C1O (stereo unspecified)	-0.42
CCCCCCC1CCC(=O)O1 (stereo unspecified)	2.72
FC(F)(F)Br	1.86
Cc1cc(N)ncn1	0.19
Cc1n[nH]c(C(=O)N(C)C2CCCCC2)c1[N+](=O)[O-]	1.68
CCOc1ccc2nccnc2c1	2.22
C=C1C(=O)OC2CC(C)C3C=CC(=O)C3(C)C(OC(=O)CC(=O)OC3C4C(=C)C(=O)OC4CC(C)C4C=CC(=O)C43C)C12 (stereo unspecified)	1.33
Nc1ncc([N+](=O)[O-])s1	0.83
O=NN(CCCl)C(=O)NCCCl	1.53
CCN(CC)C(=S)SSC(=S)N(CC)CC	3.88
CNC(=O)OCc1c2c(n3c1C(OC(C)=O)CC3)C(=O)C(Cl)=C(OC)C2=O (stereo unspecified)	2.08
COP(=O)(OC)OC(Br)C(Cl)(Cl)Br (stereo unspecified)	1.38
C#C[C@]1(O)CC[C@H]2[C@@H]3CCC4=CC(=O)CC[C@@H]4[C@H]3CC[C@@]21C	2.97
NCCCN	-1.43
CC/C(=C\c1ccccc1)[N+](=O)[O-]	2.86
ClCC(Cl)Cl	1.89
CCN(CC)C(=O)N(C)N=O	1.11
COc1ccco1	1.44
Cc1cc(O)ccc1Cl	3.1
COC(=O)CC#N	-0.47
CCCCOC	1.66
CCOc1cccc(S(I)=C(N(C)C)N(C)C)c1 (stereo unspecified)	-0.1

Structure (SMILES)	logP
CNC(=O)Oc1ccc(SC)cc1	1.92
FC(F)(F)c1nc2ccc(Cl)cc2[nH]1	3.39
COC1CC(OC2CCC3(C)C(CCC4C3CCC3(C)C(C5=CC(=O)OC5)C(OC(C)=O)CC43O)C2)OC(C)C1OC(C)=O (stereo unspecified)	2.95
CC(=O)S[C@@H]1CC2=CC(=O)CC[C@]2(C)[C@H]2CC[C@@]3(C)[C@@H](CC[C@@]34CCC(=O)O4)[C@H]12	2.78
O=C(O)CN1CCCCC1	-1.05
CCC[C@@H]1C[C@@H](C(=O)N[C@@H]([C@H]2O[C@H](SC)[C@H](O)[C@@H](O)[C@H]2O)[C@@H](C)O)N(C)C1	0.2
Ic1cn[nH]c1	1.7
CC(=O)O[C@]1(C(C)=O)CC[C@H]2[C@@H]3C[C@H](C)C4=CC(=O)C=C[C@]4(C)[C@@]3(F)[C@@H](O)C[C@@]21C	1.5
CNC(=O)OC	-0.06
CCOc1ccc2nc(S(N)(=O)=O)sc2c1	2.01
CN(C)C(N(C)C)=S(I)c1ccccc1Cl (stereo unspecified)	-0.19
CC[C@H](C)[C@H](NC(=O)[C@@H](NC(=O)[C@H](C)NC(C)=O)C(C)C)C(N)=O	-0.2
NC(=O)OCc1ccc(Cl)cc1	1.97
CCCNc1nc(NC(C)C)nc(SC(F)F)n1	4.23
O=C(O)C(Cl)(Cl)Cl	1.33
O=C(O)c1cc([N+](=O)[O-])cc([N+](=O)[O-])c1	1.55
NCC(F)(F)F	0.24
COC(=O)CCCC(=O)OC	0.62
CNC(=O)Oc1ccc(C(C)(C)C)cc1	3.06
CC(F)F	0.75
Cc1cc(=O)[nH]o1	0.46
CN(C)C(N(C)C)=S(I)c1cc(Cl)cc(Cl)c1 (stereo unspecified)	0.52
CCC1=Nc2ccc(Cl)cc2S(=O)(=O)N1	1.62
